The target of one test is PI3 Kinase α (Homo sapiens, UniProt P42336). Briefly: Fluorescence polarization assay for PI3K (PI3 Kinase α). The settings on record: diC8-PI(4,5)P2 substrate, 25 μM ATP, one hour at 25° C. Type of test: biochemical. (In general: Fluorescence polarisation rises when a labelled molecule tumbles more slowly, as on binding a larger partner.)
The target in another test is PI3 Kinase γ (Homo sapiens, UniProt P48736). Briefly: Fluorescence polarization assay for PI3K (PI3 Kinase γ). The settings on record: diC8-PI(4,5)P2 substrate, 25 μM ATP, one hour at 25° C. Type of test: biochemical.
PI3 Kinase γ, sequence (P48736 whole entry): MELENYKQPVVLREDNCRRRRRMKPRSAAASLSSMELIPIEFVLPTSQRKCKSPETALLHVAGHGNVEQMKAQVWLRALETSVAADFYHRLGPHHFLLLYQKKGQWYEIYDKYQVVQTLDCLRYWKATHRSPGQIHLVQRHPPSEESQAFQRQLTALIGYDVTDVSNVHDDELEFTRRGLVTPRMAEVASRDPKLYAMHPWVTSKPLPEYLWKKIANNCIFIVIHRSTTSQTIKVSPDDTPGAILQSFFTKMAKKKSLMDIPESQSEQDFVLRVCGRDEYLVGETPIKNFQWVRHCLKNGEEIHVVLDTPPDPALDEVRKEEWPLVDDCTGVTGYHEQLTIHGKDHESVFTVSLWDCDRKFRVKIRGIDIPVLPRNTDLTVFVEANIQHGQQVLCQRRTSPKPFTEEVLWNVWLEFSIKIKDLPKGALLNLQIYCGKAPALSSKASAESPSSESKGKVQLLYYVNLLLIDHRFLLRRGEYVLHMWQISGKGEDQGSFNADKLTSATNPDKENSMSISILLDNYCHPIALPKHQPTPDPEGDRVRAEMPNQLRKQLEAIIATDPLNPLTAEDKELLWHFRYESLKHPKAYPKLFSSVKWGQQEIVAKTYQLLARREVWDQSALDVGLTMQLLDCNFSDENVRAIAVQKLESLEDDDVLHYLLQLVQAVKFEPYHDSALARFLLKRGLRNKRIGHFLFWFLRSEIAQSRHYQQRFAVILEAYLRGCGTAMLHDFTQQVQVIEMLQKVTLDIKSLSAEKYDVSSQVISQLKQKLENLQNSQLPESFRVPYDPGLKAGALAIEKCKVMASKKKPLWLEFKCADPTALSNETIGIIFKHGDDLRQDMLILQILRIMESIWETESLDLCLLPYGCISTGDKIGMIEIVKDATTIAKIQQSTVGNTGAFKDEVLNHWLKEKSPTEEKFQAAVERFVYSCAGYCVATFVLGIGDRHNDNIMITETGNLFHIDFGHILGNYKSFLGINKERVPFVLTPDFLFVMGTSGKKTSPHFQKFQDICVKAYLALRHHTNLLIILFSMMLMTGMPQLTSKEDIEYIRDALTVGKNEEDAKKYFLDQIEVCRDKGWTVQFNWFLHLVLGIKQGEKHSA

PI3 Kinase α, sequence (P42336 whole entry): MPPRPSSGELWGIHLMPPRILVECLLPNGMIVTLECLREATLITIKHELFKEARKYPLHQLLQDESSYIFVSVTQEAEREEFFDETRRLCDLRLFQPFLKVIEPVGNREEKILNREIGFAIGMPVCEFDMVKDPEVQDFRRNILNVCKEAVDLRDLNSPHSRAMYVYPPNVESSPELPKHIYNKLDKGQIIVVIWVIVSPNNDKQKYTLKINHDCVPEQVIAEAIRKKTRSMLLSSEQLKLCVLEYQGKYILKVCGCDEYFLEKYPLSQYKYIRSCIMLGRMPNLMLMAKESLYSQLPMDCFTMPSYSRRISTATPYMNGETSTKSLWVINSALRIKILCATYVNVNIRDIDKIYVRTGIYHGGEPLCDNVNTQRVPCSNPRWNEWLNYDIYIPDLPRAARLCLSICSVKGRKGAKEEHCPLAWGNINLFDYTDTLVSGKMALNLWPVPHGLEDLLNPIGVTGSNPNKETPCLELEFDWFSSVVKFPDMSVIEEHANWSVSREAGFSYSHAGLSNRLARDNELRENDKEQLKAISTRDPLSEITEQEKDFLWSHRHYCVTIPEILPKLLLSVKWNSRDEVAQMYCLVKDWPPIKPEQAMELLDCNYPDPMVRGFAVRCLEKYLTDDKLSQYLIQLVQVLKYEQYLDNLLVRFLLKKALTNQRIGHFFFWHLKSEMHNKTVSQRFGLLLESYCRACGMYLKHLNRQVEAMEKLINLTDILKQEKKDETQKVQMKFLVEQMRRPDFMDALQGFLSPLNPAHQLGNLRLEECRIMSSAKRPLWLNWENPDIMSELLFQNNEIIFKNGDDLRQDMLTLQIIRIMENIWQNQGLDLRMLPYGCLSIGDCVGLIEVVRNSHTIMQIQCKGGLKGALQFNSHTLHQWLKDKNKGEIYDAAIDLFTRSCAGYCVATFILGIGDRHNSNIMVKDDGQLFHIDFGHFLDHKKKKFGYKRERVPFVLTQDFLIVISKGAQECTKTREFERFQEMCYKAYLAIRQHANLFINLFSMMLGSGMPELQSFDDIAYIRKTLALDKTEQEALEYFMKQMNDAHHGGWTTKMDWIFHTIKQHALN
PI3 Kinase α, sequence (P27986 whole entry partner): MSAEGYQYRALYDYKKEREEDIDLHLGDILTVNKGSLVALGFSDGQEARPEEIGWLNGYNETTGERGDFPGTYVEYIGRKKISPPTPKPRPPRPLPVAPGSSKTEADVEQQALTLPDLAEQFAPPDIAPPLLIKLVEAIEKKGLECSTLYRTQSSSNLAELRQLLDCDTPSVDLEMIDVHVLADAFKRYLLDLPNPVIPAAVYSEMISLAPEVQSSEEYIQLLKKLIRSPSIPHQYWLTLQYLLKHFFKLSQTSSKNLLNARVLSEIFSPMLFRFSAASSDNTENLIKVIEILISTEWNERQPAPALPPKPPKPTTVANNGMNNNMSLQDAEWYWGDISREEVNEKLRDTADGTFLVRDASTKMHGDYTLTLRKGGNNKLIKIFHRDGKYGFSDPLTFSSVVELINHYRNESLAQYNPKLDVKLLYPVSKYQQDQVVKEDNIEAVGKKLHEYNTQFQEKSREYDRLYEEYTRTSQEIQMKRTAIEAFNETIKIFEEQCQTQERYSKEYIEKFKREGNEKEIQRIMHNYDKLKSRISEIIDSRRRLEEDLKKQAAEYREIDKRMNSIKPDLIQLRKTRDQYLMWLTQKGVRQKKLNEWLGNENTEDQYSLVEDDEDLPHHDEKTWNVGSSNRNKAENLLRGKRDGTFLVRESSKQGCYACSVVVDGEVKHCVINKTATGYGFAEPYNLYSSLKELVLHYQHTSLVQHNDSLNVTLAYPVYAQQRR
Procedure for PI3 Kinase α: Nunc 384 well black polypropylene fluorescent plates were used for PI3K assays. Reactions were quenched by the addition of EDTA to a final concentration of 10 μM. Final reaction volumes were 10 ml. […] Reactions were allowed to proceed for one hour at 25° C. After I hour, GST-tagged GRP1 (general receptor for phosphoinositides) PH domain fusion protein was added to a final concentration of 100 nM, and BODIPY-TMRI(1,3,4,5)P4 (Echelon) was also added to a final concentration of 5 nM. Final sample volumes were 25 μl with a final DMSO concentration of 0.8%. Assay Plates were read on PerkinElmer Envision plate readers with appropriate filters for Tamra [BODIPY-TMRI(1,3,4,5)P4]. Data obtained were used to calculate enzymatic activity and enzyme inhibition by inhibitor compounds.

For `CCn1nnc2c(N3CCOCC3)nc(-c3ccc(NC(=O)NC4CCNCC4)cc3)nc21` [Example 66, 1-[4-(3-ethyl-7-morpholin-4-yl-3H-[1,2,3]triazolo[4,5-d]pyrimidin-5-yl)phenyl]-3-piperidin-4-ylurea], the IC50 (commonly the concentration that gives 50% inhibition) turned out to be 0.4 µM against PI3 Kinase α and 2.77 µM on PI3 Kinase γ.
For the compound `C[C@H](NC(=O)c1ccc(Cn2nnc3c(N4CCOCC4)nc(-c4cccc(O)c4)nc32)cc1)c1ccccc1` [Example 224, 4-{[5-(3-hydroxyphenyl)-7-morpholin-4-yl-3H-[1,2,3]triazolo[4,5-d]pyrimidin-3-yl]methyl}-N-[(1S)-1-phenylethyl]benzamide], the half-inhibitory concentration (IC50) at PI3 Kinase α was 0.09 µM; on PI3 Kinase γ it was 1.91 µM.
Consider `Oc1cncc(-c2nc(N3CCOCC3)c3nnn(C4CCN(Cc5ccc(F)cc5F)CC4)c3n2)c1` [Example 23, 5-{3-[1-(2,4-difluorobenzyl)piperidin-4-yl]-7-morpholin-4-yl-3H-[1,2,3]triazolo[4,5-d]pyrimidin-5-yl}pyridin-3-ol], for which the half-maximal inhibitory concentration (IC50) is 0.068 µM against PI3 Kinase α and 0.044 µM at PI3 Kinase γ.
As to `CCn1nnc2c(N3CCOC[C@@H]3C)nc(-c3ccc(N)cc3)nc21` [Example 67, (S)-4-(3-ethyl-7-(3-methylmorpholino)-3H-[1,2,3]triazolo[4,5-d]pyrimidin-5-yl)aniline], the half-inhibitory concentration (IC50) against PI3 Kinase α was 2.14 µM; against PI3 Kinase γ, over 10 µM.
Take `COC(=O)c1cccc(-n2nnc3c(N4CCOCC4)nc(-c4cccc(C=O)c4)nc32)c1` [Example 116, methyl 3-[5-(3-formylphenyl)-7-morpholin-4-yl-3H-[1,2,3]triazolo[4,5-d]pyrimidin-3-yl]benzoate]: the IC50 against PI3 Kinase α and at PI3 Kinase γ was over 10 µM throughout.
With `CN(C)CCCOc1ccc(CN2CCC(n3nnc4c(N5CCOCC5)nc(-c5cccc(O)c5)nc43)CC2)cc1` [Example 146, 3-[3-(1-{4-[3-(dimethylamino)propoxy]benzyl}piperidin-4-yl)-7-morpholin-4-yl-3H-[1,2,3]triazolo[4,5-d]pyrimidin-5-yl]phenol], the IC50 came out at 0.013 µM on PI3 Kinase α and 0.28 µM on PI3 Kinase γ.
Consider `CN(C)CCCNC(=O)c1ccc(Cn2nnc3c(N4CCOCC4)nc(-c4cccc(O)c4)nc32)cc1` [Example 215, N-[3-(dimethylamino)propyl]-4-{[5-(3-hydroxyphenyl)-7-morpholin-4-yl-3H-[1,2,3]triazolo[4,5-d]pyrimidin-3-yl]methyl}benzamide], for which the IC50 at PI3 Kinase α amounted to 0.335 µM; against PI3 Kinase γ, 4.03 µM.
For `CCn1nnc2c(N3CCOCC3)nc(-c3ccc(N)c(OC)c3)nc21` [Example 175, 4-(3-ethyl-7-morpholin-4-yl-3H-[1,2,3]triazolo[4,5-d]pyrimidin-5-yl)-2-methoxyaniline] the same measures were 1.41 µM and 9.11 µM.
In the case of `O=C(Nc1ccc(CCO)cc1)Nc1ccc(-c2nc(N3CCOCC3)c3nnn(CC(F)(F)F)c3n2)cc1` [Example 138, 1-[4-(2-hydroxyethyl)phenyl]-3-{4-[7-morpholin-4-yl-3-(2,2,2-trifluoroethyl)-3H-[1,2,3]triazolo[4,5-d]pyrimidin-5-yl]phenyl}urea], the results for the IC50 on PI3 Kinase α and against PI3 Kinase γ were 0.003 µM and 0.0125 µM, respectively.
In the case of `c1cc(-c2nc(N3CCOCC3)c3nnn(CCCN4CCCC4)c3n2)c2cn[nH]c2c1` [Example 11, 5-(1H-indazol-4-yl)-7-morpholin-4-yl-3-(3-pyrrolidin-1-ylpropyl)-3H-[1,2,3]triazolo[4,5-d]pyrimidine], the results for the half-inhibitory concentration (IC50) against PI3 Kinase α and on PI3 Kinase γ were 0.083 µM and 0.132 µM, respectively.
`O=C(Nc1ccc(-c2nc(N3CCOCC3)c3nnn(CC(F)(F)F)c3n2)cc1)Nc1cccnc1` [Example 135, 1-{4-[7-morpholin-4-yl-3-(2,2,2-trifluoroethyl)-3H-[1,2,3]triazolo[4,5-d]pyrimidin-5-yl]phenyl}-3-pyridin-3-ylurea]: the IC50 against PI3 Kinase α came out at 0.0095 µM; against PI3 Kinase γ it was 0.03 µM.
Take `Oc1cncc(-c2nc(N3CCOCC3)c3nnn(C4CCN(Cc5ccc(F)c(F)c5)CC4)c3n2)c1` [Example 18, 5-{3-[1-(3,4-difluorobenzyl)piperidin-4-yl]-7-morpholin-4-yl-3H-[1,2,3]triazolo[4,5-d]pyrimidin-5-yl}pyridin-3-ol]: the IC50 turned out to be 0.075 µM at PI3 Kinase α and 0.261 µM at PI3 Kinase γ.
Consider `Oc1cccc(-c2nc(N3CCOCC3)c3nnn(C4CN(Cc5ccc(F)nc5)C4)c3n2)c1` [Example 128, 3-(3-{1-[(6-fluoropyridin-3-yl)methyl]azetidin-3-yl}-7-morpholin-4-yl-3H-[1,2,3]triazolo[4,5-d]pyrimidin-5-yl)phenol], for which the IC50 at PI3 Kinase α came to 0.164 µM; against PI3 Kinase γ it was 1.1 µM.
For `CCn1nnc2c(N3CCOCC3)nc(-c3ccc(NC(=O)Nc4nccs4)cc3)nc21` [Example 37, 1-[4-(3-ethyl-7-morpholin-4-yl-3H-[1,2,3]triazolo[4,5-d]pyrimidin-5-yl)phenyl]-3-(1,3-thiazol-2-yl)urea] the same measures were 0.0735 µM and 0.157 µM.
For `Oc1cccc(-c2nc(N3CCOCC3)c3nnn(CCCN4CCCC4)c3n2)c1` [Example 9, 3-[7-morpholin-4-yl-3-(3-pyrrolidin-1-ylpropyl)-3H-[1,2,3]triazolo[4,5-d]pyrimidin-5-yl]phenol], in that order: 0.057 µM and 0.242 µM.
Consider `Oc1cncc(-c2nc(N3CCOCC3)c3nnn(C4CCN(Cc5ccc(F)cc5)CC4)c3n2)c1` [Example 14, 5-{3-[1-(4-fluorobenzyl)piperidin-4-yl]-7-morpholin-4-yl-3H-[1,2,3]triazolo[4,5-d]pyrimidin-5-yl}pyridin-3-ol], for which the 50% inhibitory concentration (IC50) at PI3 Kinase α worked out at 0.06 µM; against PI3 Kinase γ, 0.094 µM.
For `CCn1nnc2c(N3CCOC[C@@H]3C)nc(-c3ccc(NC(=O)Nc4ccc(CCO)cc4)cc3)nc21` [Example 68, (S)-1-(4-(3-ethyl-7-(3-methylmorpholino)-3H-[1,2,3]triazolo[4,5-d]pyrimidin-5-yl)phenyl)-3-(4-(2-hydroxyethyl)phenyl)urea] the same measures were 0.009 µM and 0.0703 µM.
Consider `CN(C)CCCOc1ccc(CN2CCN(CCn3nnc4c(N5CCOCC5)nc(-c5cccc(O)c5)nc43)CC2)cc1` [Example 110, 3-{3-[2-(4-{4-[3-(dimethylamino)propoxy]benzyl}piperazin-1-yl)ethyl]-7-morpholin-4-yl-3H-[1,2,3]triazolo[4,5-d]pyrimidin-5-yl}phenol], for which the IC50 on PI3 Kinase α was 0.201 µM; against PI3 Kinase γ, 0.402 µM.
For `O=C(O)c1ccc(Cn2nnc3c(N4CCOCC4)nc(-c4cccc(O)c4)nc32)cc1` [Example 242, 4-{[5-(3-hydroxyphenyl)-7-morpholin-4-yl-3H-[1,2,3]triazolo[4,5-d]pyrimidin-3-yl]methyl}benzoic acid] the same measures were 0.509 µM and 0.842 µM.
As for `O=C(Nc1ccc(-c2nc(N3CCOCC3)c3nnn(CC(F)(F)F)c3n2)cc1)Nc1ccsc1` [Example 142, 1-{4-[7-morpholin-4-yl-3-(2,2,2-trifluoroethyl)-3H-[1,2,3]triazolo[4,5-d]pyrimidin-5-yl]phenyl}-3-(3-thienyl)urea], the IC50 at PI3 Kinase α was 0.004 µM; on PI3 Kinase γ, 0.02 µM.
Turning to `CCn1nnc2c(N3CCOCC3)nc(-c3ccc(NC(=O)OCCc4ccc(N)cc4)cc3)nc21` [Example 38, 2-(4-aminophenyl)ethyl [4-(3-ethyl-7-morpholin-4-yl-3H-[1,2,3]triazolo[4,5-d]pyrimidin-5-yl)phenyl]carbamate], the figures for the IC50 at PI3 Kinase α and against PI3 Kinase γ were 0.341 µM and 7.44 µM, respectively.
As for `Oc1cccc(-c2nc(N3CCOCC3)c3nnn(C4CCN(Cc5ccc(F)cc5)CC4)c3n2)c1` [Example 147, 3-{3-[1-(4-fluorobenzyl)piperidin-4-yl]-7-morpholin-4-yl-3H-[1,2,3]triazolo[4,5-d]pyrimidin-5-yl}phenol], the figures for the half-inhibitory concentration (IC50) on PI3 Kinase α and at PI3 Kinase γ were 0.059 µM and 0.735 µM, respectively.
For the compound `CC(C)n1nnc2c(N3CCOCC3)nc(-c3ccc(NC(=O)Nc4cc[nH]c4)cc3)nc21` [Example 95, 1-[4-(3-isopropyl-7-morpholin-4-yl-3H-[1,2,3]triazolo[4,5-d]pyrimidin-5-yl)-phenyl]-3-(1H-pyrrol-3-yl)-urea], the concentration for half-maximal inhibition (IC50) against PI3 Kinase α is 0.0337 µM; against PI3 Kinase γ it was 0.091 µM.
For `CC(C)n1nnc2c(N3CCOCC3)nc(-c3ccc(NC(=O)NCCN(C)C)cc3)nc21` [Example 88, 1-[2-(dimethylamino)ethyl]-3-[4-(3-isopropyl-7-morpholin-4-yl-3H-[1,2,3]triazolo[4,5-d]pyrimidin-5-yl)phenyl]urea] the same measures were 0.0775 µM and 0.197 µM.
As to `O=C(Nc1ccccc1)Nc1ccc(-c2nc(N3CCOCC3)c3nnn(CC4CNC4)c3n2)cc1` [Example 189, 1-{4-[3-(azetidin-3-ylmethyl)-7-morpholin-4-yl-3H-[1,2,3]triazolo[4,5-d]pyrimidin-5-yl]phenyl}-3-phenylurea], the IC50 on PI3 Kinase α amounted to 0.008 µM; at PI3 Kinase γ, 0.028 µM.
`CCN1CCCC1CNC(=O)Nc1ccc(-c2nc(N3CCOCC3)c3nnn(C(C)C)c3n2)cc1` (centres unmarked) [Example 92, 1-(1-ethyl-pyrrolidin-2-ylmethyl)-3-[4-(3-isopropyl-7-morpholin-4-yl-3H-[1,2,3]triazolo[4,5-d]pyrimidin-5-yl)-phenyl]-urea]: the IC50 turned out to be 0.149 µM at PI3 Kinase α and 0.645 µM on PI3 Kinase γ.
As for `CN(C)c1ccc(NC(=O)Nc2ccc(-c3nc(N4CCOCC4)c4nnn(CC(F)(F)F)c4n3)cc2)cc1` [Example 137, 1-[4-(dimethylamino)phenyl]-3-{4-[7-morpholin-4-yl-3-(2,2,2-trifluoroethyl)-3H-[1,2,3]triazolo[4,5-d]pyrimidin-5-yl]phenyl}urea], the IC50 on PI3 Kinase α stood at 0.013 µM; against PI3 Kinase γ it was 0.0305 µM.
For `O=C(Nc1ccc(F)cc1)c1ccc(Cn2nnc3c(N4CCOCC4)nc(-c4cccc(O)c4)nc32)cc1` [Example 217, N-(4-fluorophenyl)-4-{[5-(3-hydroxyphenyl)-7-morpholin-4-yl-3H-[1,2,3]triazolo[4,5-d]pyrimidin-3-yl]methyl}benzamide], in that order: 0.24 µM and 0.24 µM.

Values taken from US20090181963A1, “3H-[1,2,3]TRIAZOLO[4,5-D]PYRIMIDINE COMPOUNDS, THEIR USE AS mTOR KINASE AND PI3 KINASE INHIBITORS, AND THEIR [sequence]” (Wyeth, priority 2008, published 2009).
